We go through 2 substances from patent US11254716B2, “Peptides for binding epidermal growth factor” (3M INNOVATIVE PROPERTIES COMPANY, priority 2016, dated 2022).

By Kd is commonly meant the equilibrium constant for the complex coming apart.

Where no end group is shown, it is not given here.

The target in assay [1] is T1, TNF-α (Homo sapiens, UniProt P01375).
T1 construct: purchased Abcam plc, Cambridge, Mass
As to the kind of experiment: Surface plasmon resonance (SPR) binding assay (Test Method A), TNF-α. As to conditions: CK-linker modified peptide immobilized on CM5 chip, Biacore 3000, 25° C., TNF-α 62.5-1000 nM, 1-to-1 Langmuir fit; read-out: binding affinity (KD) for TNF-α. In general terms: SPR reads the build-up and loss of mass on a sensor chip optically.

Assay [2] deals with T2, EGF (Homo sapiens, UniProt P01133). In words: biochemical. As to conditions: binding affinity (KD) for EGF, CK-linker modified peptide immobilized on CM5 chip, Biacore 3000, 25° C., EGF 62.5-1000 nM, 1-to-1 Langmuir fit.
Experimental: “Test Method A” refers to the following general surface plasmon resonance (SPR) binding assay. Target protein (e.g., EGF and tumor necrosis factor alpha (TNFα)) is immobilized at 25° C. and diluted peptides are injected for 3 min at a flow rate of 10 μl/min at 25° C.
The immobilization was performed at 25° C. using HBS-EP as the running buffer. The CM-dextran surfaces of the sensor chip flow cells were activated by a seven minute injection (20 microliters/minute) of freshly prepared 1:1 50 mM NHS: 200 mM EDC. […] The coupling step was followed by a seven minute injection (20 microliters/minute) of ethanolamine hydrochloride-NaOH (1M, pH 8.5) which deactivated residual reactive sites.
The kinetic analysis for EGF was performed at 25° C. The EGF was diluted in HBS-EP buffer and centrifuged at 14,000 rpm for five minutes at 4° C. Individual test samples of EGF at various concentrations (62.5, 125, 250, 500 and 1000 nM) were injected for three minutes at a flow rate of 10 microliters/minute. The surface was regenerated by injection of 10 microliters of glycine-HCl in water (20 mM, pH 2.5).
The data analysis was carried out using the BIA Evaluation Software Kit obtained from GE Healthcare Bio-Sciences Corporation. The assay data fitted 1-to-1 Langmuir using global curve fitting analysis.
In assay [3] the target is T2, EGF. In words: Dot blotting analysis of biotinylated peptide with membrane-spotted EGF. As to conditions: EGF 10 nM spotted; biotinylated peptide 10 ng/mL; Streptavidin-HRP, TMB. Further details: Recombinant Human Epidermal Growth Factor (EGF); purchased Abcam plc, Cambridge, Mass. The format is binding. As for the experimental part:
EGF (1 microliter of a 10 nM solution in PBS was spotted a nitrocellulose membrane (obtained from Thermo Fisher Scientific) and the membrane was dried in air for about 30 minutes. The membrane was then incubated in 15 mL of blocking buffer (3 wt. % BSA in PBS) for one hour at room temperature. The membrane was washed three times (15 minutes for each wash) with 15 mL portions of fresh PBST. The washed membrane was incubated with Biotinylated SEQ ID NO: 1 [10 mL of a 10 ng/mL solution in blocking buffer (3 wt. % BSA in PBS)] with gentle agitation for one hour. The membrane was again washed three times (15 minutes for each wash) with 15 mL portions of fresh PBST. The washed membrane was incubated with Streptavidin-HRP [1:5000 dilution in 10 mL of the blocking buffer (3 wt. % BSA in PBS)] for 30 minutes with gentle agitation. Following the incubation, the membrane was washed three times (15 minutes for each wash) with 15 mL portions of fresh PBST. The washed membrane was incubated with 10 mL of the development solution for horseradish peroxidase (TMB-Blotting Substrate Solution, Pierce-Fisher Scientific) with gentle agitation. The color development was stopped by adding water.

T2 sequence (P01133 971-1023 limits assumed): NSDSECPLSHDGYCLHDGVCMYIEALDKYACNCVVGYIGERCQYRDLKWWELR
T1 sequence (P01375 77-233 limits assumed): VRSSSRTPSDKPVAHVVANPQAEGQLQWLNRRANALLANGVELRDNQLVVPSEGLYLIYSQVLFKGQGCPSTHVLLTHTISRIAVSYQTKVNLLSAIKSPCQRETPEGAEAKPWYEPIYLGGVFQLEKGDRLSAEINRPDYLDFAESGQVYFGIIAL

For the substance “Ac-WFEWPYWEMNVPDVWN-NH2 [SEQ ID NO: 1, WFEWPYWEMNVPDVWN]”, the Kd in assay [1] was 75 µM; in assay [2], 0.08 µM.
With “Biotinylated SEQ ID NO: 1: Biotinylated version of peptide SEQ ID NO: 1 (WFEWPYWEMNVPDVWN; also: biotinylated, site not given here)”, in assay [3], the “dot blot colour development at EGF application site (affinity for EGF)” value is “A dark spot developed”.
